Results reported in ChEMBL document CHEMBL1201862, “PubChem BioAssay data set” (2004).
Active and inactive are the calls of the source.

Assays:
fMet-Leu-Phe receptor = target: T1, fMet-Leu-Phe receptor (Homo sapiens, UniProt P21462); assay: FPR ligands, dose response (AID 519); assay type: functional
T1 sequence (P21462 whole entry): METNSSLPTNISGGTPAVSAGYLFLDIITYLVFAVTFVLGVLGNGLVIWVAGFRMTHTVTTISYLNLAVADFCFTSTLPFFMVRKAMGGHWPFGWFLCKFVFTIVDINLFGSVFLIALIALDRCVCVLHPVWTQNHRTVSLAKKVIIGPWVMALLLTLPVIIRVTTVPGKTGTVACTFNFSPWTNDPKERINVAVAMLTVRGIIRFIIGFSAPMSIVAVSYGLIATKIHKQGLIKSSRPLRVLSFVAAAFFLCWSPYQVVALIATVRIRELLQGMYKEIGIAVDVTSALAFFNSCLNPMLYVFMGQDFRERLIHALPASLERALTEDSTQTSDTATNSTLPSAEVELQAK

[1] = target: T2, Tyrosine-protein phosphatase non-receptor type 7 (Homo sapiens, UniProt P35236); assay: inhibitors of human HePTP phosphatase, […], biochemical, absorbance, leukemia target (AID 521); assay type: functional
T2 sequence (P35236 whole entry): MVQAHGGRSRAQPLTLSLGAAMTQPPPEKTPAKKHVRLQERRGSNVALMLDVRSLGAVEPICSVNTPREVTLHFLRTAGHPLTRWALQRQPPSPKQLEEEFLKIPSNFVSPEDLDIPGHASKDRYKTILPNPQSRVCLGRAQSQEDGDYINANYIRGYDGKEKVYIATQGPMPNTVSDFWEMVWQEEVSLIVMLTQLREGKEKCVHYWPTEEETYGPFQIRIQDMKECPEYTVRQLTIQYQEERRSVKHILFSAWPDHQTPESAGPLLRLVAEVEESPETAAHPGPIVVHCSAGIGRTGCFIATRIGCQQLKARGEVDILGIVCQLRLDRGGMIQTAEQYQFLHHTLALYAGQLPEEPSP

[2] = cytotoxicity in OVCAR8 ovarian cancer cells, dose response, PAX8 project, cell-based, plate reader, dry powder samples (AID 743197); assay type: functional; settings: OVCAR-8
[3] = NIH:OVCAR-3 ovarian cancer cell cytotoxicity, dose response, PAX8 inhibitor project, plate reader, dry powder samples (AID 743044); assay type: functional, cell-based
Paired box protein Pax-8 = Paired box protein Pax-8 (Homo sapiens, UniProt Q06710); assay: inhibitors of PAX8-driven TPO luciferase reporter, dose response, RMG-I cells, cherry-pick (AID 687027); assay type: functional, cell-based;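 note: luciferase reporter driven by Pax8 target thyroperoxidase promoter measured by SteadyGlo luminescence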
Paired box protein Pax-8, sequence (Q06710 whole entry): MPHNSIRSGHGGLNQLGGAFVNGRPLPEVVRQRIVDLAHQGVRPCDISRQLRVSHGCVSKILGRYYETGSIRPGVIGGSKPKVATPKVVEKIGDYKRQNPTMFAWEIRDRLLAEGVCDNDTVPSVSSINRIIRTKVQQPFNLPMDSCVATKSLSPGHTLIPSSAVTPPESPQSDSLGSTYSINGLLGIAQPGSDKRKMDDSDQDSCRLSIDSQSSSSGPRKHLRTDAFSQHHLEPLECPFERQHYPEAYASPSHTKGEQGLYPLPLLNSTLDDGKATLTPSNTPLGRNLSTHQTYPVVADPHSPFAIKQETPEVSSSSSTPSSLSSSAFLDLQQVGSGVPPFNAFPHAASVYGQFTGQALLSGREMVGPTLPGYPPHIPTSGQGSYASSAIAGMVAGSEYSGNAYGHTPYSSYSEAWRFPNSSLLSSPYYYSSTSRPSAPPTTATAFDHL

[4] = IGROV1 ovarian cancer cell cytotoxicity, dose response, PAX8 inhibitor project, plate reader, dry powder samples (AID 743043); assay type: functional, cell-based; settings: IGROV-1
[5] = StAR promoter reporter inhibition counter-screen, dose response, counter-screen for LRH-1 inverse agonist project, cell-based, luminescence, luciferase reporter (AID 651969); assay type: functional
[6] = target: Nuclear receptor subfamily 5 group A member 2 (Homo sapiens, UniProt O00482); assay type: functional, cell-based;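 note: HEK293T cells transfected with LRH-1 and a StAR promoter luciferase reporter; potency for inhibitors that lower LRH-1 driven reporter light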
Nuclear receptor subfamily 5 group A member 2, sequence (O00482 whole entry): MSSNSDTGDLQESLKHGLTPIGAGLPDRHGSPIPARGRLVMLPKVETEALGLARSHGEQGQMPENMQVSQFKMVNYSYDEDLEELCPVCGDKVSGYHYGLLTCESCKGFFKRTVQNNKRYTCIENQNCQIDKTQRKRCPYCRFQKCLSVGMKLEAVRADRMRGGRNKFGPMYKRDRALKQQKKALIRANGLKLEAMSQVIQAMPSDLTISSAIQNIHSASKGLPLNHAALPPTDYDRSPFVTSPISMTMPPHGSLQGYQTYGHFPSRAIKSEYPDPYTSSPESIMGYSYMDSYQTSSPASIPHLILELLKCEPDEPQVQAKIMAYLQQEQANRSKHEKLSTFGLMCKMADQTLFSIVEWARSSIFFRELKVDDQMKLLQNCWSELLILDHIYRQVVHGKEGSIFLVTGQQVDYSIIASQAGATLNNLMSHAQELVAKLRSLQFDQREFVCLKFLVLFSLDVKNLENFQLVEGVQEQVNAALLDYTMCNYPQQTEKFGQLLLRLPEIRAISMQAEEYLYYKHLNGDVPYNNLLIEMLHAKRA

Steroidogenic factor 1 = Steroidogenic factor 1 (Homo sapiens, UniProt Q13285); assay: Counterscreen for inverse agonists of the liver receptor homolog-1 (LRH-1; NR5A2): Luminescence-based cell-based high throughput dose response assay to identify inverse agonists of the Steroidogenic Factor 1 Nuclear Receptor (SF1; NR5A1).; assay type: functional
Steroidogenic factor 1, sequence (Q13285 whole entry): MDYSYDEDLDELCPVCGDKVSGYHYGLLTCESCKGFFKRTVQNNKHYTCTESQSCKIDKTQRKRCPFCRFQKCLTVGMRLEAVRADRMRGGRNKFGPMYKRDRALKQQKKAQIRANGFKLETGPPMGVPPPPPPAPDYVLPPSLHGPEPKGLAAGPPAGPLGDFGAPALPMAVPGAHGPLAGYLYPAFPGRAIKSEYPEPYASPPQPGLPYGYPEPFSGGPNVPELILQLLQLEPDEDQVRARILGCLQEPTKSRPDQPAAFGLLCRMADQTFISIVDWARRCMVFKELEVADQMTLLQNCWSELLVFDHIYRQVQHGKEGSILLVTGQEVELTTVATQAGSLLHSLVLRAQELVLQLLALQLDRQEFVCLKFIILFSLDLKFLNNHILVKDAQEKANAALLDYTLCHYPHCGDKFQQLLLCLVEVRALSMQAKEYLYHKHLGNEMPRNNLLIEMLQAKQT

Cytochrome P450 1A2 = target: T3, Cytochrome P450 1A2 (Homo sapiens, UniProt P05177);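 note: PubChem cytochrome P450 panel assay, CYP1A2 panel member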
T3 sequence (P05177 whole entry): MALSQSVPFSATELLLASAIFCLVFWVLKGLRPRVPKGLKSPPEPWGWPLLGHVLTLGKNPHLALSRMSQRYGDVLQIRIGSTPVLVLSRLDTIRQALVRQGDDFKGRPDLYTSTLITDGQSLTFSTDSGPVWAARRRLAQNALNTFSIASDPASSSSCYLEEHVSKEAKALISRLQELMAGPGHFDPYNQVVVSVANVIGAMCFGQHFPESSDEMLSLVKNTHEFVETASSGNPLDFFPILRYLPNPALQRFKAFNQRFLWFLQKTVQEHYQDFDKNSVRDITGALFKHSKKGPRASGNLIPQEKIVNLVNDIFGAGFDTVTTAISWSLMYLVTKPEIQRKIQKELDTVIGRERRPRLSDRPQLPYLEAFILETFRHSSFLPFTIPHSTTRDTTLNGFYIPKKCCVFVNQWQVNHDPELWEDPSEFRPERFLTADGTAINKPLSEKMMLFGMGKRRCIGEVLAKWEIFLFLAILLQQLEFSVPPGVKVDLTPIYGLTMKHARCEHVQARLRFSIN

Cytochrome P450 3A4 = Cytochrome P450 3A4 (Homo sapiens, UniProt P08684);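 note: CYP3A4 tested as one member of a cytochrome P450 panel screen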
Cytochrome P450 3A4, sequence (P08684 whole entry): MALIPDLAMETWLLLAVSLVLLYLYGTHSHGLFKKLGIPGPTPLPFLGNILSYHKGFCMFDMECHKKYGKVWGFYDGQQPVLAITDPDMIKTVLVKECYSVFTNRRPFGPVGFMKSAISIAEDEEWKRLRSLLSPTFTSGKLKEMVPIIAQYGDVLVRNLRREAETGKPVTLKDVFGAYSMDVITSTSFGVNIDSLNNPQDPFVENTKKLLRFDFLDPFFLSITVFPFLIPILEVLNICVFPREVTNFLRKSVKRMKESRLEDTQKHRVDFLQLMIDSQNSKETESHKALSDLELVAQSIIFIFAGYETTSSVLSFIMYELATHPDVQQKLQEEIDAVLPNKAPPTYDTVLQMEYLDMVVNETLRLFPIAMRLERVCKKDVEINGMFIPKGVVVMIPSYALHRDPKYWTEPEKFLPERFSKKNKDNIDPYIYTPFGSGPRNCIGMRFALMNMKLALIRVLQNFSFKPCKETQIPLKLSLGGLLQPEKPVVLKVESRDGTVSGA

[7] = non-specific cell cytotoxicity, dose response, cytotoxicity control for PAX8 inhibitor project, plate reader, dry powder samples (AID 743021); assay type: functional, cell-based
H4 = assay: Luminescence Cell-Based Dose Response HTS to Identify Activators of 5'UTR Stem-Loop Driven Prion Protein mRNA Translation in H4 Neuroglioblastoma Cells. [Related pubchem assays: 1829 (Project Summary), 1814 (Primary HTS)]; assay type: functional; settings: Homo sapiens
[8] = Luminescence Cell-Based Dose Response HTS to Identify Activators of Luciferase Translation or Activity in H4 […] Cells. [Related pubchem assays: 1829 (Project Summary), 1814 (Primary HTS)]; assay type: functional

## COc1ccc(OC)c(C2C(C(=O)c3cccs3)=C(O)C(=O)N2c2cc(C)on2)c1 (centres undefined)
fMet-Leu-Phe receptor
  Ki: > 66.7 µM (inactive)

## CCOc1ccccc1-n1c(SCC(=O)NC(C)(C)C)nnc1-c1ccoc1C
[1]
  IC50: > 100 µM (not active)

## C[C@@H]1CN([C@@H](C)CO)C(=O)c2cc(NC(=O)CCC(F)(F)F)ccc2O[C@@H](C)CCCCO[C@H]1CN(C)Cc1ccc(C(F)(F)F)cc1
[2]
  AC50: 50.8 µM (active)
[3]
  AC50: 17.2 µM (active)
Paired box protein Pax-8
  AC50: 2.43 µM (active)
[4]
  AC50: 65.5 µM (active)

## Cc1csc(NC(=O)CCn2c(=O)oc3ccccc32)n1
fMet-Leu-Phe receptor
  Ki: > 66.7 µM (inactive)

## COCCNc1ccc([N+](=O)[O-])cc1C(=O)NC1CCCc2ccccc21 (centres undefined)
[5]
  IC50: 35.9 µM (inactive)
[6]
  IC50: 9.5 µM (active)
Steroidogenic factor 1
  IC50: 5.53 µM (active)

## O=C(C1=C(O)C(=O)N(Cc2ccco2)C1c1ccccc1)c1cccs1 (centres undefined)
Cytochrome P450 1A2
  AC50: 25.1 µM (inconclusive)
Cytochrome P450 3A4
  AC50: 14.1 µM (inconclusive)
fMet-Leu-Phe receptor
  Ki: 35.2 µM (inactive)

## CCS(=O)(=O)N1CC(=O)N2[C@H](CO)[C@@H](c3ccc(-c4ccccc4F)cc3)[C@H]2C1
[2]
  AC50: 63 µM (active)
[3]
  AC50: 14.1 µM (active)
[7]
  AC50: 60.5 µM (active)
Paired box protein Pax-8
  AC50: 5.26 µM (active)
[4]
  AC50: 28.6 µM (active)

## COc1ccc(NC(=O)CN2CCN(c3ccccc3F)CC2)cc1
[1]
  IC50: > 100 µM (not active)

## Cc1no[n+]([O-])c1COc1ccccc1/C=N/n1nnnc1N
[5]
  IC50: 35.9 µM (inactive)
[6]
  IC50: 35.9 µM (inactive)
H4
  EC50: 98.6 µM (active)
Steroidogenic factor 1
  IC50: 35.9 µM (inactive)
[8]
  EC50: 7.52 µM (active)
